The target of data set [1] is human μ opioid receptor (OPRM1) (Homo sapiens, UniProt P35372). Description: cell-based. Format: cell-based.
Data set [2] deals with human μ opioid receptor β-arrestin-2 (Homo sapiens, UniProt P35372). Put plainly: cell-based.
Data set [3] concerns the target human δ opioid receptor (OPRD1) (Homo sapiens, UniProt P41143). Description: cell-based. The format is cell-based.
Data set [4] has as its target κ opioid receptor (OPRK1) (Homo sapiens, UniProt P41145). Put plainly: cell-based.
For data set [5], the target named is nociceptin receptor (OPRL1) (Homo sapiens, UniProt P41146). Put plainly: cell-based. Format: cell-based.
Data set [6] deals with B6129/F1 hybrid mice. Description: Hot plate test. The format is in vivo, mouse. Background: Thermal pain tests record how soon the animal reacts.
The test system of data set [7] is B6129/F1 hybrid mice. Description: Naloxone pre-treatment antagonist study in hot plate test. The format is in vivo, mouse. To be noted: naloxone 10 mg/kg pretreatment, agonist 10 mg/kg.
Data set [8] can be described thus: in vitro. To be noted: human, microsomes.
The nature of data set [9]: in vitro. To be noted: mouse, microsomes.
A short description of data set [10]: Solubility observed for in vivo dosing.

Experimental findings from PMC12374581 (European journal of medicinal chemistry, 2025) are described below.

“And” between values parts separate entries of the source, which are not always exact repeats. Identical values can stand only once. Like-named read-outs stand apart in the source and are kept apart here. Bounds are passed on as bounds.

human μ opioid receptor β-arrestin-2, sequence (P35372 whole entry): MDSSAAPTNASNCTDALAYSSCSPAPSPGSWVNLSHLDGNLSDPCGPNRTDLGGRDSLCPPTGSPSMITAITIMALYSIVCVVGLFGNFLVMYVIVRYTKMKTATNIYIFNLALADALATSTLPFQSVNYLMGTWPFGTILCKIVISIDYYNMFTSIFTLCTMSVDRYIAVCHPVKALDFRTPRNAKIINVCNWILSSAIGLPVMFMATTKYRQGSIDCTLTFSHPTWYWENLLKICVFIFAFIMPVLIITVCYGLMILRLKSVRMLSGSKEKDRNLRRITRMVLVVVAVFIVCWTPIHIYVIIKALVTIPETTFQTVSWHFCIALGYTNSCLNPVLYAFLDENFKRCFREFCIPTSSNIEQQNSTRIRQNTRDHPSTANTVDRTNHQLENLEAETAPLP
nociceptin receptor (OPRL1), sequence (P41146 whole entry): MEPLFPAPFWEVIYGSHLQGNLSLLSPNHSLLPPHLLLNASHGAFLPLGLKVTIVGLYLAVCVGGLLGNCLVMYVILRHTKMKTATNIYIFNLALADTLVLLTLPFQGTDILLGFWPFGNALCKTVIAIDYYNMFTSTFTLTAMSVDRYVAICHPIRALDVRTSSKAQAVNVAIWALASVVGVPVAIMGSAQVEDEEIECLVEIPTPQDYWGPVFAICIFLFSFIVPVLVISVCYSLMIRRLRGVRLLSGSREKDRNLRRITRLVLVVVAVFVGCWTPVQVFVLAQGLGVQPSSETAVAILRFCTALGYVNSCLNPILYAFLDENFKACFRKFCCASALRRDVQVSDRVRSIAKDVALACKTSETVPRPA
human μ opioid receptor (OPRM1), sequence (P35372 whole entry): as the sequence (P35372 whole entry) above
κ opioid receptor (OPRK1), sequence (P41145 whole entry): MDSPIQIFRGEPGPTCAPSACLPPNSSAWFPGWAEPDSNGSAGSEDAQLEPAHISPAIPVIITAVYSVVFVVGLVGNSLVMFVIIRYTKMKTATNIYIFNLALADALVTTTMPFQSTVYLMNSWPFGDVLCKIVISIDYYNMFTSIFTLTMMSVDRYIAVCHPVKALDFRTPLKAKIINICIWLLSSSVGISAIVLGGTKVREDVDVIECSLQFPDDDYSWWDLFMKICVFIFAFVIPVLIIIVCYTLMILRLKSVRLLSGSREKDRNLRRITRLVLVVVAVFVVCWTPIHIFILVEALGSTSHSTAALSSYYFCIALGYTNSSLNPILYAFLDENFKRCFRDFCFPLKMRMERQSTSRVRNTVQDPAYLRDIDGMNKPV
human δ opioid receptor (OPRD1), sequence (P41143 whole entry): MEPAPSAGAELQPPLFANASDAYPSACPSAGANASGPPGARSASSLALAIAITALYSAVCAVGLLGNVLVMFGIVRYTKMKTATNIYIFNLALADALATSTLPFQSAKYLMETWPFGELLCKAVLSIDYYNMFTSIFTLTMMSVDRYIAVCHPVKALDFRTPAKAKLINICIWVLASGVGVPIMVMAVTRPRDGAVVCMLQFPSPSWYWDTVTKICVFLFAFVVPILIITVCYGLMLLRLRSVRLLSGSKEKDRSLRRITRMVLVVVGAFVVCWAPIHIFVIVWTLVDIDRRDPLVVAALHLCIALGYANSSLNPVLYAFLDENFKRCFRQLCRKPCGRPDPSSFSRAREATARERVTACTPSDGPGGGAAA

On to `Nc1cccc(N2C3CCC2CN(CCCc2ccccc2)C3)c1` [Compound 11, 3-(3-(3-Phenylpropyl)-3,8-diazabicyclo[3.2.1]octan-8-yl)aniline], for which the half-maximal effective concentration (EC50) in data set [1] is 0.00025 µM; in data set [2], greater than 10 µM; in data set [2] (read-out: β-Arrestin Recruitment EC50), greater than 10 µM; in [3], 0.0016 µM; in data set [4] it was greater than 10 µM; in data set [5] (NOR cAMP EC50 (nM)), greater than 10000 nM. The compound also registered a 50% effective concentration (EC50) in data set [5] (NOR cAMP pEC50± SEM) greater than 10000 nM. The Emax in data set [1] (OPRM1, read-out: MOR cAMP %Emax ± SEM) worked out at 104 ± 2.4%; in data set [2] (read-out: β-Arrestin Recruitment %Emax ± SEM), 0%; in data set [3] (read-out: DOR cAMP Emax ± SEM (%)) it was 71.1 ± 3.6%; in data set [4] (read-out: KOR cAMP Emax ± SEM (%)), 0%; in data set [5] (read-out: NOR cAMP Emax ± SEM (%)), 0%. Also, the 50% effective dose (ED50) in the data set with B6129/F1 hybrid mice [6] (Mus musculus, ip, read-out: ED50 (antinociception, hot plate)) was 0.849 mg/kg. Moreover, in the data set with B6129/F1 hybrid mice [6] (hot plate, mice, i.p.), the “in vivo agonist profile (antinociception)” value was “partial agonists”. Moreover, the “Emax (maximal possible effect at the highest dose, hot plate)” value in the data set on B6129/F1 hybrid mice [6] (i.p., cumulative doses, B6129/F1 mice, nonlinear regression) was 43.86 % MPE and 44 % MPE. Moreover, in the data set with B6129/F1 hybrid mice [7], the “effect of naloxone pretreatment on antinociceptive effects” value is “antagonized by naloxone”. Besides, the half-life in the data set “in vitro [8]” was 36.5 min; in “in vitro [9]”, 3.5 min. The “solubility (in words)” value in data set [10] is listed as “poorly soluble”.

One may read the EC50 as the concentration that produces a half-maximal response. A word on the Emax: it is the greatest response seen or fitted, relative to the assay's reference. One may read the ED50 as the dose at which the effect has come halfway, by size or by number of responders. One may read the half-life as the time in which the quantity being followed falls by half. Read a high half-life as slow decline.
